Source: ChEMBL document CHEMBL1127134, “Synthesis and antibacterial activity of (1R,5R,6R)-2-tert-butyl-6-(1-hydroxyethyl)oxapenem-3-carboxylic acid” (1993)

What was measured:
Type in all cases: functional
Staphylococcus aureus [1] = assay: Minimum inhibitory concentration required for the antibacterial activity against Staphylococcus aureus 13N Munchen
[2] = tested on: Peptoniphilus asaccharolyticus; assay: Minimum inhibitory concentration required for the antibacterial activity against Peptococcus asacchar. DSM 20463
Bacteroides fragilis [3] = assay: Minimum inhibitory concentration required for the antibacterial activity against Bacillus fragilis 1560 I/82
Bacteroides fragilis [4] = assay: Minimum inhibitory concentration required for the antibacterial activity against Bacillus fragilis Kr 1 TV
Enterococcus faecalis = assay: Minimum inhibitory concentration required for the antibacterial activity against Streptococcus faecalis 113
[5] = tested on: Peptostreptococcus anaerobius; assay: Minimum inhibitory concentration required for the antibacterial activity against Peptostrept. anaer. 222 I/82
Clostridium sporogenes = assay: Minimum inhibitory concentration required for the antibacterial activity against Clostridium sporogenes
Klebsiella = assay: Minimum inhibitory concentration required for the antibacterial activity against Klebsiella 63
Fusobacterium nucleatum = assay: Minimum inhibitory concentration required for the antibacterial activity against Fusobacterium nucleatum DSM 20482
Enterococcus [6] = assay: Minimum inhibitory concentration required for the antibacterial activity against Enterococcus 27158
Bacteroides fragilis [7] = assay: Minimum inhibitory concentration required for the antibacterial activity against Bacillus fragilis L 1168 Italien
Staphylococcus aureus [8] = assay: Minimum inhibitory concentration required for the antibacterial activity against Staphylococcus aureus 77 Innsbruck
Proteus mirabilis = assay: Minimum inhibitory concentration required for the antibacterial activity against Proteus mirabilis 1235
Clostridium septicum = assay: Minimum inhibitory concentration required for the antibacterial activity against Clostridium septicum
Anaerococcus prevotii = assay: Minimum inhibitory concentration required for the antibacterial activity against Peptococcus prevotii DSM 20548
Enterococcus [9] = assay: Minimum inhibitory concentration required for the antibacterial activity against Enterococcus 9790
Clostridium butyricum = assay: Minimum inhibitory concentration required for the antibacterial activity against Clostridium butyricum
Bacteroides fragilis [10] = assay: Minimum inhibitory concentration required for the antibacterial activity against Bacillus fragilis 2034/35 Kr 43
Staphylococcus aureus [11] = assay: Minimum inhibitory concentration required for the antibacterial activity against Staphylococcus aureus 86 Innsbruck
Bacteroides fragilis [12] = assay: Minimum inhibitory concentration required for the antibacterial activity against Bacillus fragilis GA I - 0558 Japan
Clostridium perfringens = assay: Minimum inhibitory concentration required for the antibacterial activity against Clostridium perfringens DSM 756

In the case of `C[C@@H](O)[C@H]1C(=O)N2C(C(=O)[O-])=C(C(C)(C)C)O[C@H]12.[K+]`, the MIC (Staphylococcus aureus [1]) is reported as 1.56 µg/mL, the MIC [2] is reported as 0.5 µg/mL and the MIC (Bacteroides fragilis [3]) is reported as 2 µg/mL. The MIC (Bacteroides fragilis [4]) was 2 µg/mL, the MIC (Enterococcus faecalis) was 16 µg/mL and the MIC [5] was 2 µg/mL. It also gave an MIC (Clostridium sporogenes) of 0.5 µg/mL, an MIC (Klebsiella) of 4 µg/mL and an MIC (Fusobacterium nucleatum) of 0.5 µg/mL. For the same molecule, the MIC (Enterococcus [6]) was 16 µg/mL, the MIC (Bacteroides fragilis [7]) was 2 µg/mL and the MIC (Staphylococcus aureus [8]) was no more than 0.78 µg/mL. The MIC (Proteus mirabilis) was 4 µg/mL, the MIC (Clostridium septicum) was 2 µg/mL and the MIC (Anaerococcus prevotii) was 2 µg/mL. The MIC (Enterococcus [9]) was 2 µg/mL, the MIC (Clostridium butyricum) was 2 µg/mL and the MIC (Bacteroides fragilis [10]) was 2 µg/mL. For the same molecule, the MIC (Staphylococcus aureus [11]) was no more than 0.78 µg/mL, the MIC (Bacteroides fragilis [12]) was 2 µg/mL and the MIC (Clostridium perfringens) was 1 µg/mL.
